Test results from PubChem BioAssay AID256 (DTP/NCI, 2004).
Where “and” joins values, the source holds several entries; their conditions need not be identical. Identical values can stand only once. Toxic doses and inconclusive results are not listed. The calls were made as follows: active = survival T/C of 150% or more; inactive = T/C below 125% in these data.

Tested on: CD2F1 mice, L1210 leukemia ip, survival T/C
Experiment: NCI In Vivo Anticancer Drug Screen. Data for tumor model L1210 Leukemia (intraperitoneal) in CD2F1 (CDF1) mice
Details: higher = longer survival
In short: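 Compound-dosed mice with transplantable tumor versus matched vehicle controls; endpoint ratio T/C reported.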

[1] = endpoint: mean survival time, dose: 100.0 mg/kg/injection, schedule: Q01DX009 (ip), vehicle: Klucel (hydroxypropylcellulose) (HPC)
[2] = endpoint: mean survival time, dose: 200.0 mg/kg/injection, schedule: Q01DX009 (ip), vehicle: Klucel (hydroxypropylcellulose) (HPC)
[3] = endpoint: mean survival time, dose: 100.0 mg/kg/injection, schedule: Q04DX003 (ip), vehicle: saline with Tween-80
[4] = endpoint: mean survival time, dose: 200.0 mg/kg/injection, schedule: Q04DX003 (ip), vehicle: saline with Tween-80
[5] = endpoint: mean survival time, dose: 400.0 mg/kg/injection, schedule: Q04DX003 (ip), vehicle: saline with Tween-80
[6] = endpoint: mean survival time, dose: 100.0 mg/kg/injection, schedule: Q04DX003 (ip), vehicle: Klucel (hydroxypropylcellulose) (HPC)
[7] = endpoint: mean survival time, dose: 200.0 mg/kg/injection, schedule: Q04DX003 (ip), vehicle: Klucel (hydroxypropylcellulose) (HPC)

Measured: T/C

CC(=O)C1CCC2(C)C(CCC3C4CCC(C(C)=O)C4(C)CC(=O)C32)C1 (configuration not stated)
inactive: endpoint: mean survival time, dose: 50.0 mg/kg/injection, schedule: Q01DX009 (ip), vehicle: Klucel (hydroxypropylcellulose) (HPC) 96 % of control | [1] 100 % of control | [2] 93 % of control

Cc1ccc(S(=O)(=O)OCC2OCOC(COS(=O)(=O)c3ccc(C)cc3)C(OS(=O)(=O)c3ccc(C)cc3)C2OS(=O)(=O)c2ccc(C)cc2)cc1 (configuration not stated)
inactive: endpoint: mean survival time, dose: 100.0 mg/kg/injection, schedule: Q04DX002 (ip), vehicle: saline with Tween-80 88 % of control | endpoint: mean survival time, dose: 200.0 mg/kg/injection, schedule: Q04DX002 (ip), vehicle: saline with Tween-80 100 % of control | endpoint: mean survival time, dose: 400.0 mg/kg/injection, schedule: Q04DX002 (ip), vehicle: saline with Tween-80 107 % of control

NC(=O)C(Cl)(Cl)C(Cl)(Cl)C(Cl)(Cl)Cl
inactive: endpoint: mean survival time, dose: 100.0 mg/kg/injection, schedule: Q01DX009 (ip), vehicle: saline with Tween-80 100 % of control | [3] 100 % of control | endpoint: mean survival time, dose: 200.0 mg/kg/injection, schedule: Q01DX009 (ip), vehicle: saline with Tween-80 93 % of control | [4] 95 % of control | endpoint: mean survival time, dose: 400.0 mg/kg/injection, schedule: Q01DX009 (ip), vehicle: saline with Tween-80 90 % of control | [5] 94 % of control

CC(=O)C1CCC2C3CC=C4CC(n5cc(F)c(=O)[nH]c5=O)CCC4(C)C3CCC12C (configuration not stated)
inactive: endpoint: mean survival time, dose: 12.5 mg/kg/injection, schedule: Q04DX003 (ip), vehicle: Klucel (hydroxypropylcellulose) (HPC) 97 % of control | endpoint: mean survival time, dose: 25.0 mg/kg/injection, schedule: Q04DX003 (ip), vehicle: Klucel (hydroxypropylcellulose) (HPC) 101 % of control | endpoint: mean survival time, dose: 50.0 mg/kg/injection, schedule: Q04DX003 (ip), vehicle: Klucel (hydroxypropylcellulose) (HPC) 97 % of control | [6] 98 % of control | [7] 91 % of control

O=S(=O)(Nc1ccc2c3c(cccc13)CC2)c1ccccc1
inactive: [3] 96 % of control | [4] 96 % of control | [5] 98 % of control

OCCCNCc1ccccc1
inactive: endpoint: mean survival time, dose: 100.0 mg/kg/injection, schedule: Q01DX009 (ip), vehicle: saline 97 % of control | endpoint: mean survival time, dose: 200.0 mg/kg/injection, schedule: Q01DX009 (ip), vehicle: saline 96 % of control | endpoint: mean survival time, dose: 400.0 mg/kg/injection, schedule: Q01DX009 (ip), vehicle: saline 100 % of control

COC(=O)c1ccc(=O)c2nc3/c(=C/O)c(O)cc(=O)c3[nH]c12
inactive: endpoint: mean survival time, dose: 5.0 mg/kg/injection, schedule: Q04DX003 (ip), vehicle: saline with Tween-80 107 % of control | endpoint: mean survival time, dose: 10.0 mg/kg/injection, schedule: Q04DX003 (ip), vehicle: saline with Tween-80 90 % of control

C(=N\Nc1nc2ccccc2s1)/c1cccnc1
inactive: [6] 97 % of control | [7] 94 % of control | endpoint: mean survival time, dose: 400.0 mg/kg/injection, schedule: Q04DX003 (ip), vehicle: Klucel (hydroxypropylcellulose) (HPC) 100 % of control

Nc1ccc2c(c1)[nH]c1ccccc12
inactive: [3] 93 % of control | [4] 101 % of control

Cc1cc(C(O)CNCCCn2c(N3CCOCC3)nc3c2c(=O)n(C)c(=O)n3C)ccc1O (configuration not stated)
inactive: endpoint: mean survival time, dose: 12.5 mg/kg/injection, schedule: Q01DX005 (ip), vehicle: water 96 % of control | endpoint: mean survival time, dose: 25.0 mg/kg/injection, schedule: Q01DX005 (ip), vehicle: water 97 % of control | endpoint: mean survival time, dose: 50.0 mg/kg/injection, schedule: Q01DX005 (ip), vehicle: water 97 % of control | endpoint: mean survival time, dose: 100.0 mg/kg/injection, schedule: Q01DX005 (ip), vehicle: water 96 % of control | endpoint: mean survival time, dose: 200.0 mg/kg/injection, schedule: Q01DX005 (ip), vehicle: water 100 % of control

CC1(C)N=C(N)N=C(N)N1c1cccc(CCCCc2ccc(S(=O)(=O)F)cc2Cl)c1
inactive: endpoint: mean survival time, dose: 12.5 mg/kg/injection, schedule: Q01DX009 (ip), vehicle: saline sonified 87 % of control | endpoint: mean survival time, dose: 12.5 mg/kg/injection, schedule: Q04DX003 (ip), vehicle: saline sonified 96 % of control | endpoint: mean survival time, dose: 25.0 mg/kg/injection, schedule: Q01DX009 (ip), vehicle: saline sonified 89 % of control | endpoint: mean survival time, dose: 25.0 mg/kg/injection, schedule: Q04DX003 (ip), vehicle: saline sonified 96 % of control | endpoint: mean survival time, dose: 50.0 mg/kg/injection, schedule: Q04DX003 (ip), vehicle: saline sonified 92 % of control

CC(C)(C)[Si](C)(C)N1CCCOP1(=O)N(CCCl)CCCl (configuration not stated)
inactive: endpoint: mean survival time, dose: 15.6 mg/kg/injection, schedule: Q01DX001 (ip), vehicle: distilled water + Tween-80 98 % of control | endpoint: mean survival time, dose: 31.3 mg/kg/injection, schedule: Q01DX001 (ip), vehicle: distilled water + Tween-80 102 % of control | endpoint: mean survival time, dose: 62.5 mg/kg/injection, schedule: Q01DX001 (ip), vehicle: distilled water + Tween-80 96 % of control | endpoint: mean survival time, dose: 125.0 mg/kg/injection, schedule: Q01DX001 (ip), vehicle: distilled water + Tween-80 108 % of control | endpoint: mean survival time, dose: 250.0 mg/kg/injection, schedule: Q01DX001 (ip), vehicle: distilled water + Tween-80 101 % of control | endpoint: mean survival time, dose: 500.0 mg/kg/injection, schedule: Q01DX001 (ip), vehicle: distilled water + Tween-80 104 % of control

NC(=O)C[P+](c1ccccc1)(c1ccccc1)c1ccccc1
inactive: endpoint: mean survival time, dose: 25.0 mg/kg/injection, schedule: Q04DX003 (ip), vehicle: saline with Tween-80 109 % of control | endpoint: mean survival time, dose: 50.0 mg/kg/injection, schedule: Q04DX003 (ip), vehicle: saline with Tween-80 114 % of control | [3] 102 % of control and 105 % of control

CCOC(=O)c1cnc(SCc2ccccc2Cl)nc1N1CC1
inactive: endpoint: mean survival time, dose: 28.05 mg/kg/injection, schedule: Q01DX009 (ip), vehicle: saline with Tween-80 115 % of control

CC(=O)OC1C(OC(C)=O)C(OC(C)=O)C2OC(C)(C)OC2C1OC(C)=O (configuration not stated)
inactive: [1] 96 % of control | [2] 93 % of control | endpoint: mean survival time, dose: 400.0 mg/kg/injection, schedule: Q01DX009 (ip), vehicle: Klucel (hydroxypropylcellulose) (HPC) 100 % of control

COc1ccc(N(C)c2ccc(C(=C3C=CC(=[N+](C)CCO)C=C3)c3ccc(N(C)CCO)cc3)cc2)cc1
inactive: endpoint: mean survival time, dose: 6.25 mg/kg/injection, schedule: Q04DX002 (ip), vehicle: saline with Tween-80 108 % of control | endpoint: mean survival time, dose: 25.0 mg/kg/injection, schedule: Q04DX002 (ip), vehicle: saline with Tween-80 108 % of control

Oc1ccc(CCl)c2cccnc12
inactive: endpoint: median survival time, dose: 12.5 mg/kg/injection, schedule: Q01DX009 (ip), vehicle: saline 102 % of control | endpoint: median survival time, dose: 25.0 mg/kg/injection, schedule: Q01DX009 (ip), vehicle: saline 102 % of control | endpoint: median survival time, dose: 50.0 mg/kg/injection, schedule: Q01DX009 (ip), vehicle: saline 102 % of control | endpoint: median survival time, dose: 100.0 mg/kg/injection, schedule: Q01DX009 (ip), vehicle: saline 95 % of control

COc1ccc(-n2c(C)nc3c(cnn3C3OC(CO)C(O)C3O)c2=O)cc1 (configuration not stated)
inactive: endpoint: median survival time, dose: 12.5 mg/kg/injection, schedule: Q01DX005 (ip), vehicle: saline 103 % of control | endpoint: median survival time, dose: 25.0 mg/kg/injection, schedule: Q01DX005 (ip), vehicle: saline 102 % of control | endpoint: median survival time, dose: 50.0 mg/kg/injection, schedule: Q01DX005 (ip), vehicle: saline 105 % of control | endpoint: median survival time, dose: 100.0 mg/kg/injection, schedule: Q01DX005 (ip), vehicle: saline 111 % of control | endpoint: median survival time, dose: 200.0 mg/kg/injection, schedule: Q01DX005 (ip), vehicle: saline 103 % of control

OCCN(CCO)N=Nc1c(F)cc(F)cc1F
inactive: endpoint: mean survival time, dose: 25.0 mg/kg/injection, schedule: Q01DX005 (ip), vehicle: other 98 % of control | endpoint: mean survival time, dose: 25.0 mg/kg/injection, schedule: Q04DX003 (ip), vehicle: water 94 % of control | endpoint: mean survival time, dose: 50.0 mg/kg/injection, schedule: Q01DX005 (ip), vehicle: other 101 % of control | endpoint: mean survival time, dose: 50.0 mg/kg/injection, schedule: Q04DX003 (ip), vehicle: water 94 % of control | endpoint: mean survival time, dose: 100.0 mg/kg/injection, schedule: Q01DX005 (ip), vehicle: other 101 % of control | endpoint: mean survival time, dose: 100.0 mg/kg/injection, schedule: Q04DX003 (ip), vehicle: water 97 % of control | endpoint: mean survival time, dose: 200.0 mg/kg/injection, schedule: Q01DX005 (ip), vehicle: other 102 % of control | endpoint: mean survival time, dose: 200.0 mg/kg/injection, schedule: Q04DX003 (ip), vehicle: water 97 % of control | endpoint: mean survival time, dose: 400.0 mg/kg/injection, schedule: Q01DX005 (ip), vehicle: other 112 % of control | endpoint: mean survival time, dose: 400.0 mg/kg/injection, schedule: Q04DX003 (ip), vehicle: water 100 % of control

Cc1onc(-c2ccccc2)c1C(=O)O
inactive: [3] 101 % of control | [4] 93 % of control | [5] 89 % of control
